In paper PMC8692581, “A specific inhibitor of ALDH1A3 regulates retinoic acid biosynthesis in glioma stem cells” (Communications Biology, 2021):

Columns and labels:
[1] = target: T1, ALDH1A3 (Homo sapiens, UniProt P47895); assay: X-ray co-crystal structure ([…] Å); steady-state enzyme inhibition kinetics (IC50 […]); thermal shift MS in GSC-326 lysate; type: biochemical
T1 construct: full-length, N-term 6xHis tagged
T1 sequence (P47895 1-512): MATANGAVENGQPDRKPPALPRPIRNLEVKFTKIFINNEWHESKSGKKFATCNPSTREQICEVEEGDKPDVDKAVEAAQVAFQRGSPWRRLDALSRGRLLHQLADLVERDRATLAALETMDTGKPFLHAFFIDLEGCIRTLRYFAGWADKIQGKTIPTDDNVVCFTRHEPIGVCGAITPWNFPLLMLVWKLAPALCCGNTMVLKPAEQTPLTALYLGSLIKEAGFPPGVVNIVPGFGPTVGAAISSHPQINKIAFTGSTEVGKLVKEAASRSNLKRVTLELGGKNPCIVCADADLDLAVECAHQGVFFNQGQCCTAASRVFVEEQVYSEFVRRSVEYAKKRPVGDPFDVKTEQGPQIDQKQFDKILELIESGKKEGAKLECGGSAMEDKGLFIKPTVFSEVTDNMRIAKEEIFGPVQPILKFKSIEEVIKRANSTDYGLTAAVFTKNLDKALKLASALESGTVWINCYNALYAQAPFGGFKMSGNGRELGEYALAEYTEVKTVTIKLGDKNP

[2] = target: T2, ALDH1A1 (Homo sapiens, UniProt P00352); assay: steady-state enzyme kinetics, NADH absorbance at […] nm ([…] activity retained at […] inhibitor); type: biochemical
T2 construct: full-length, N-term 6xHis tagged
T2 sequence (P00352 1-501): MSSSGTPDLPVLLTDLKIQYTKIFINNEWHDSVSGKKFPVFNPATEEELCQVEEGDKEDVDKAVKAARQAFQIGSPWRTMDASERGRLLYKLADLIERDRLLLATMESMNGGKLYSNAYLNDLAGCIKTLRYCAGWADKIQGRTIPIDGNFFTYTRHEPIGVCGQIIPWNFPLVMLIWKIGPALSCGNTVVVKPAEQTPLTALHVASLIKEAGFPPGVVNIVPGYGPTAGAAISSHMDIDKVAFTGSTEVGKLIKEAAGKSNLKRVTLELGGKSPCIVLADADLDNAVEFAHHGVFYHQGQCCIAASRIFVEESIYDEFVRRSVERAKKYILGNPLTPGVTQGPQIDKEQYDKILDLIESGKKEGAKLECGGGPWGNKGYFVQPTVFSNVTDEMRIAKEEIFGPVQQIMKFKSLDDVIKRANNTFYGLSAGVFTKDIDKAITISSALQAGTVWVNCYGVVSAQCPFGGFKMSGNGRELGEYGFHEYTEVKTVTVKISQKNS

[3] = target: T1, ALDH1A3; assay: X-ray crystal structure ([…] Å), ternary with MCI-INI-3; crystals grown with […] NAD+; type: binding

| Ki [1] [µM] | Ki [2] [µM] | SMILES | X-ray crystal structure (2.8 Å), ternary with MCI-INI-3; crystals grown with 1 m [3] |
| --- | --- | --- | --- |
| 0.55 ± 0.11 | 78.2 ± 14.4 | COC(=O)c1cc(-c2ccc3c(c2)OCO3)nc2cc(-c3ccccc3)nn12 [MCI-INI-3] | – |
| – | – | NC(=O)c1ccc[n+]([C@@H]2O[C@H](COP(=O)([O-])OP(=O)(O)OC[C@H]3O[C@@H](n4cnc5c(N)ncnc54)[C@H](O)[C@@H]3O)[C@@H](O)[C@H]2O)c1 [NAD^+] | The ligands NAD^+ and MCI-INI-3 are shown as gray and black sticks. |
